Several values for one entry are separate records, joined by “and”; a condition that tells them apart may be missing. Equal entries are not always repeated. Where two headings read alike, the source gives them in different places.
Columns and labels:
solid tumors = details: solid tumor cell lines, 48 h
Renal = details: renal cancer cell lines, 48 h
Colon = details: colon cancer cell lines, 48 h
SC Lung = details: sc lung cancer cell lines, 48 h
P388/ADR = test: NCI sulforhodamine B assay; format: cell-based, mouse
Procedure: (§1) These assays were carried out at the Developmental Therapeutics Program, Division of Cancer Treatment, National Cancer Institute (Bethesda, Md., U.S.A.). The method consists of incubating varying concentrations of the drug with an inoculum of cells for two days. […] The 57 cell lines included two mouse leukemia lines (P388 parental and adriamycin resistant) and […] human cell lines.
(§2) It should be noted that the first two parameters (GI50 and TGI) relate to antiproliferation effects while the third one (LC50) indicates true cytotoxicity. A value of -4 or greater is considered to denote resistance (inactivity).

MALMB-3M = test: NCI sulforhodamine B assay; format: cell-based, human
Procedure: as §1, §2

RXF-393L = test: NCI sulforhodamine B assay; format: cell-based, human
Procedure: as §1, §2

NCl-H460 = test: NCI sulforhodamine B assay; format: cell-based, human
Procedure: as §1, §2

IGROV-1 = test: NCI sulforhodamine B assay; format: cell-based, human
Procedure: as §1, §2

SNB-19 = test: NCI sulforhodamine B assay; format: cell-based, human; details: for GI50: read-out: Log10 GI50 (converted)
Procedure: as §1, §2

HOP-18 = test: NCI sulforhodamine B assay; format: cell-based, human
Procedure: as §1, §2

MCF-7 = test: NCI sulforhodamine B assay; format: cell-based, human
Procedure: as §1, §2

Methyl(11-hydroxy-5,12-dioxo-3,4,5,12-tetrahydroanthraceno[2,3-c]pyran-3-yl)ketone and Methyl(5-hydroxy-5,12-dioxo-3,4,5,12-tetrahydroanthraceno[2,3-c]pyran-3-yl)ketone [BCH-687]
Average LOG10 LC50, Mean Potency in solid tumors (solid tumors): -4.21(± 0.05) log molar | Average LOG10 LC50 (Renal): > -4.21 log molar | Average LOG10 LC50 (Colon): -4.25(± 0.09) log molar | Average LOG10 LC50 (SC Lung): > -4.18 log molar

COC(=O)C1CC2=C(C(=O)c3c(cc4ccccc4c3O)C2=O)C(O[C@H]2C[C@H](NC(=O)C(F)(F)F)[C@H](O)[C@H](C)O2)O1 (mixture of isomers) [BCH-242, (1'S,1R,3S) and (1'S, 1S,3R)-Methyl[11-hydroxy-1-2',3',6'-trideoxy-3-trifluroacetamido-L-lyxohexopyranose)-5,12-dioxo-3,4,5,12-tetrahydroanthraceno[2,3-c]pyran-3-yl]formate]
Log10 LC50 (P388/ADR; 2880 min): > -4.00 log molar | CC50 (P388/ADR; Mus musculus, 48 h, read-out: Log10 LC50, P388/ADR (converted)): 69.2 µM | GI50 (P388/ADR; Mus musculus, read-out: Log10 GI50 (converted)): 2.34 µM and 0.324 µM | IC100 (MALMB-3M; Homo sapiens, 48 h, MALMB-3M, read-out: Log10 TGI (converted)): 3.24 µM | CC50 (MALMB-3M; Homo sapiens, 48 h, read-out: Log10 LC50, MALMB-3M (converted)): 5.75 µM | GI50 (MALMB-3M; Homo sapiens, MALMB-3M, read-out: Log10 GI50 (converted)): 1.78 µM | Log10 GI50 (MALMB-3M; MALMB-3M): -6.02 log molar | Log10 TGI (MALMB-3M; MALMB-3M): -5.67 log molar | Log10 LC50 (MALMB-3M; MALMB-3M, 2880 min): -5.33 log molar | IC100 (RXF-393L; Homo sapiens, 48 h, RXF-393L, read-out: Log10 TGI (converted)): 2.63 µM | CC50 (RXF-393L; Homo sapiens, 48 h, read-out: Log10 LC50, RXF-393L (converted)): 5.37 µM | GI50 (RXF-393L; Homo sapiens, RXF-393L, read-out: Log10 GI50 (converted)): 1.29 µM | Log10 GI50 (RXF-393L; RXF-393L): -6.05 log molar | Log10 TGI (RXF-393L; RXF-393L): -5.67 log molar | Log10 LC50 (RXF-393L; RXF-393L, 2880 min): -5.32 log molar | IC100 (NCl-H460; Homo sapiens, 48 h, NCl-H460, read-out: Log10 TGI (converted)): 3.98 µM | CC50 (NCl-H460; Homo sapiens, NCI-H460, 48 h, read-out: Log10 LC50, NCl-H460 (converted)): 8.13 µM | Log10 TGI (NCl-H460; NCl-H460): -5.70 log molar | Log10 LC50 (NCl-H460; NCl-H460, 2880 min): -5.33 log molar | Log10 GI50 (IGROV-1): -5.75 log molar | Log10 LC50 (IGROV-1; 2880 min): -5.10 log molar | CC50 (SNB-19; Homo sapiens, SNB-19, 48 h, read-out: Log10 LC50, SNB-19 (converted)): 36.3 µM | GI50 (SNB-19; Homo sapiens, SNB-19, SNB-19): 3.8 µM | GI50 (SNB-19; Homo sapiens, SNB-19): 2.29 µM | Log10 LC50 (SNB-19; SNB-19, 2880 min): -4.65 log molar | Log10 GI50 (HOP-18; HOP-18): -5.94 log molar | Log10 TGI (HOP-18; HOP-18): -5.45 log molar | Log10 LC50 (HOP-18; HOP-18, 2880 min): -4.92 log molar | IC100 (HOP-18; Homo sapiens, HOP-18, 48 h, HOP-18, read-out: Log10 TGI (converted)): 4.9 µM | CC50 (HOP-18; Homo sapiens, HOP-18, 48 h, read-out: Log10 LC50, HOP-18 (converted)): 16.6 µM | GI50 (HOP-18; Homo sapiens, HOP-18, HOP-18, read-out: Log10 GI50 (converted)): 1.91 µM | CC50 (MCF-7; Homo sapiens, MCF7, 48 h, read-out: Log10 LC50, MCF-7 (converted)): 5.37 µM | GI50 (MCF-7; Homo sapiens, MCF7, MCF-7; read-out: Log10 GI50 (converted)): 0.324 µM | GI50 (MCF-7; Homo sapiens, MCF7; MCF-7; read-out: Log10 GI50 (converted)): 1.55 µM | Log10 LC50 (MCF-7; MCF-7; 2880 min): -5.38 log molar

— patent US5593970A, “Heterocyclic anthracycline analogs” (priority 1994, dated 1997)
